One compound from article PMC11783400, “Assessment of Potential Drug–Drug Interactions for Novel Oral Melanocortin‐1 Receptor Agonist Dersimelagon” (Pharmacology Research & Perspectives, 2025) can be followed below.

In one data set the target is T1, OCT2 (Homo sapiens, UniProt O15244).
T1 construct: gene SLC22A2; expressed in HEK293 cells
T1 sequence (O15244 1-555): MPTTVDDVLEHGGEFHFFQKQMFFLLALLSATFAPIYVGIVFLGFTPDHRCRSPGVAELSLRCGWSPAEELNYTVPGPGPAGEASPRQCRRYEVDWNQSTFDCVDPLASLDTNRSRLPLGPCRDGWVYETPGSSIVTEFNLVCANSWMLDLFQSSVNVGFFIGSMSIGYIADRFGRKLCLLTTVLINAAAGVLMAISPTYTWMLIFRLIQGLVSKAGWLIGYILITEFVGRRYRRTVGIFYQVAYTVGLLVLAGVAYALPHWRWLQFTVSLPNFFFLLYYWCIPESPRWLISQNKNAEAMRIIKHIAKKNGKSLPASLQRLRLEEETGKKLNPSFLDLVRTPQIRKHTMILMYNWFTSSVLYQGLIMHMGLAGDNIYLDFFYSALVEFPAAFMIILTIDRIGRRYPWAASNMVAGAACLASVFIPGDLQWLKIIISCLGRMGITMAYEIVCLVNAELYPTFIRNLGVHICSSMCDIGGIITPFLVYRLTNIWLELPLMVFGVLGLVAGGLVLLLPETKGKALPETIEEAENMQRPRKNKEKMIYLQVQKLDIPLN
Put plainly: uptake inhibition in HEK293 cells expressing the transporter. Format: cell-based. From the text: uptake inhibition in HEK293 cells expressing the transporter on OCT2

A further data set deals with T2, P‐gp (P‐glycoprotein) (Homo sapiens, UniProt P08183).
T2 construct: gene ABCB1; endogenous transporter in Caco-2 cell monolayers
In words: transport inhibition in Caco-2 monolayers. Format: cell-based. From the text: transport inhibition in Caco-2 monolayers on P‐gp (P‐glycoprotein)
(Caco-2 monolayers are a common model of the intestinal barrier.)

Another data set concerns the target T3, MATE2‐K (Homo sapiens, UniProt Q86VL8).
T3 construct: gene SLC47A2; expressed in HEK293 cells
Put plainly: uptake inhibition in HEK293 cells expressing the transporter. It counts as cell-based. From the text: uptake inhibition in HEK293 cells expressing the transporter on MATE2‐K

For another data set, the target named is T4, CYP2C9 (Homo sapiens, UniProt P11712).
T4 construct: native enzyme in human liver microsomes
Put plainly: CYP activity inhibition in human liver microsomes. Format: biochemical. From the text:
CYP activity inhibition in human liver microsomes on CYP2C9

The target in a further data set is T5, OATP1B3 (Homo sapiens, UniProt Q9NPD5).
T5 construct: gene SLCO1B3; expressed in HEK293 cells
T5 sequence (Q9NPD5 1-702): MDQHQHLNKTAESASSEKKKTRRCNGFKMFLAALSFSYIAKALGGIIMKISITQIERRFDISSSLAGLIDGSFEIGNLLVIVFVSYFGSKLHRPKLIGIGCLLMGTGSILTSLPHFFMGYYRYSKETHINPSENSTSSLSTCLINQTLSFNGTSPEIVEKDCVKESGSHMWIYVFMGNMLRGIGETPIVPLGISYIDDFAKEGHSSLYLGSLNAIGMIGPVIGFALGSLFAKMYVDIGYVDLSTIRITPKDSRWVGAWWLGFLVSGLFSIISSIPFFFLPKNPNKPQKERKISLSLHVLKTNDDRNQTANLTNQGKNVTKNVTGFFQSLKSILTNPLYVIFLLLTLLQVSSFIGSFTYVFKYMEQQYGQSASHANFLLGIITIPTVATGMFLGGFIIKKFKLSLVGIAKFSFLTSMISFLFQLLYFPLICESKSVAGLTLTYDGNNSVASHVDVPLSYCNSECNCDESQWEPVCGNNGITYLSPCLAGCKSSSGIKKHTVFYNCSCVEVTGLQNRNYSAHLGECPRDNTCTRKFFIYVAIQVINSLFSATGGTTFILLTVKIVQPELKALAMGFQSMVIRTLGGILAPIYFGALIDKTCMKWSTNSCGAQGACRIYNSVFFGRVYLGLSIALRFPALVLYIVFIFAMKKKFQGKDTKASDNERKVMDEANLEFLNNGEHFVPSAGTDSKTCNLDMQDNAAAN
Put plainly: uptake inhibition in HEK293 cells expressing the transporter. Format: cell-based. The source says: uptake inhibition in HEK293 cells expressing the transporter on OATP1B3

A further data set addresses T6, UGT1A1 (Homo sapiens, UniProt P22309).
T6 construct: native enzyme in human liver microsomes
T6 sequence (P22309 26-533): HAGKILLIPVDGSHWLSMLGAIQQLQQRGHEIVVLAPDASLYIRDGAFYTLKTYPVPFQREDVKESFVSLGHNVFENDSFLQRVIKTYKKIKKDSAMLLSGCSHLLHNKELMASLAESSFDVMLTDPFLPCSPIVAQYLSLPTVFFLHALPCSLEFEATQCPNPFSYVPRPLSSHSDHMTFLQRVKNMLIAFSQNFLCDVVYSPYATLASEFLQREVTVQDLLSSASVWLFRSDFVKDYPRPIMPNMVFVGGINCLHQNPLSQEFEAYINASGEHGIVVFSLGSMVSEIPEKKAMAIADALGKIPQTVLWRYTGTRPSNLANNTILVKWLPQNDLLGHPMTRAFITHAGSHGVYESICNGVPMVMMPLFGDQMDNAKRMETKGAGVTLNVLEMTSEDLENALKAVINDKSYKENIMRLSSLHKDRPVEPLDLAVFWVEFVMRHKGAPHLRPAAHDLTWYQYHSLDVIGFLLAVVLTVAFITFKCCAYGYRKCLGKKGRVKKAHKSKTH
In words: glucuronidation inhibition in human liver microsomes. Format: biochemical. The settings on record: substrate beta-estradiol, competitive. From the text: glucuronidation inhibition in human liver microsomes on UGT1A1
A general note: Liver microsomes are a subcellular fraction often used to study metabolism.

pIC50, pKi: −log10 of the molar value. Bounds are passed on as bounds.

T4 sequence (P11712 whole entry): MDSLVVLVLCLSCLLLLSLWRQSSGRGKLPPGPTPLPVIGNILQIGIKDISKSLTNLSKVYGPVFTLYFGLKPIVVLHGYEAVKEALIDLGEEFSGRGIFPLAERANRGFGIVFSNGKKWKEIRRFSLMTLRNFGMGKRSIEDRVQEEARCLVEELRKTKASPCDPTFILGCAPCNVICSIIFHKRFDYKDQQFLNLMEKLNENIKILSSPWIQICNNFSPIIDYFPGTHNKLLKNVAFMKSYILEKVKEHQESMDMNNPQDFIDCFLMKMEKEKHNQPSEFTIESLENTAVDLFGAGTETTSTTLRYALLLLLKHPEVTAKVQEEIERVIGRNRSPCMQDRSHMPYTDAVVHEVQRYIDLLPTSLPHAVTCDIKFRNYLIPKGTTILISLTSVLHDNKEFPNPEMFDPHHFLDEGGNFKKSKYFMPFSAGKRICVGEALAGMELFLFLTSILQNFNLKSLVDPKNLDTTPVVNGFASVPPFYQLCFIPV
T2 sequence (P08183 whole entry): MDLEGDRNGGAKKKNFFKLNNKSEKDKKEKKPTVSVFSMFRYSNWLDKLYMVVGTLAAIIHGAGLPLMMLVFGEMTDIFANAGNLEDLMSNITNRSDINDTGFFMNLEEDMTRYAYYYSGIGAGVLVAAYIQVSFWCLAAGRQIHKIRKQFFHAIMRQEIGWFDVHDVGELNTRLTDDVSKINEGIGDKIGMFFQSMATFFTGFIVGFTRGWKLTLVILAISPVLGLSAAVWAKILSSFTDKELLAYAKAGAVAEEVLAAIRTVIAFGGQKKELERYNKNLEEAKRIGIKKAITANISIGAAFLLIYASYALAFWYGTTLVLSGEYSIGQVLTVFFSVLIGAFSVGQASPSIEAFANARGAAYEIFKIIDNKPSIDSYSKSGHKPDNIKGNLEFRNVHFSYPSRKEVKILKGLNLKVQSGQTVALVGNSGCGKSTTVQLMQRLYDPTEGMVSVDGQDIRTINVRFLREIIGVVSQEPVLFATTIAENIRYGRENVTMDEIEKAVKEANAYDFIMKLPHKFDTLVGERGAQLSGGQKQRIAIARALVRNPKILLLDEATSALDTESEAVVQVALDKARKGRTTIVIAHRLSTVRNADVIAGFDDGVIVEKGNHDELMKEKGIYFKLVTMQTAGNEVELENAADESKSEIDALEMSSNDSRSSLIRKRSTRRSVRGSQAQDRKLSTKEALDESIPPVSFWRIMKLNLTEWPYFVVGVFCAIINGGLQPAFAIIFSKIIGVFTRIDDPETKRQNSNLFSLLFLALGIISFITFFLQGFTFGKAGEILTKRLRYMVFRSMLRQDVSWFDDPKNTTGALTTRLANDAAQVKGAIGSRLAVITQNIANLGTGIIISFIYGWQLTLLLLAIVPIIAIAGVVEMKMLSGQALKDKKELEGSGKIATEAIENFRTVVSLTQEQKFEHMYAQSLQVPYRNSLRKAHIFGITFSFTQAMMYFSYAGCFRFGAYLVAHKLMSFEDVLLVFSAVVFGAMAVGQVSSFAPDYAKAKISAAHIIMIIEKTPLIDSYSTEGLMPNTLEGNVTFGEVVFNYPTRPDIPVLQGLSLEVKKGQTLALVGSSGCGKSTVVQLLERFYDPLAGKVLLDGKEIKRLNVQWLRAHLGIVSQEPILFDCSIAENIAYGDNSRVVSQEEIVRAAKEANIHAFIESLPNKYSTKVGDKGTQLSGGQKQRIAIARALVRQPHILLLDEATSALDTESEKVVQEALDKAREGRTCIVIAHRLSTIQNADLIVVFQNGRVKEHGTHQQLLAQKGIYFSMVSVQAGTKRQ
T3 sequence (Q86VL8 1-566 isoform Q86VL8-3): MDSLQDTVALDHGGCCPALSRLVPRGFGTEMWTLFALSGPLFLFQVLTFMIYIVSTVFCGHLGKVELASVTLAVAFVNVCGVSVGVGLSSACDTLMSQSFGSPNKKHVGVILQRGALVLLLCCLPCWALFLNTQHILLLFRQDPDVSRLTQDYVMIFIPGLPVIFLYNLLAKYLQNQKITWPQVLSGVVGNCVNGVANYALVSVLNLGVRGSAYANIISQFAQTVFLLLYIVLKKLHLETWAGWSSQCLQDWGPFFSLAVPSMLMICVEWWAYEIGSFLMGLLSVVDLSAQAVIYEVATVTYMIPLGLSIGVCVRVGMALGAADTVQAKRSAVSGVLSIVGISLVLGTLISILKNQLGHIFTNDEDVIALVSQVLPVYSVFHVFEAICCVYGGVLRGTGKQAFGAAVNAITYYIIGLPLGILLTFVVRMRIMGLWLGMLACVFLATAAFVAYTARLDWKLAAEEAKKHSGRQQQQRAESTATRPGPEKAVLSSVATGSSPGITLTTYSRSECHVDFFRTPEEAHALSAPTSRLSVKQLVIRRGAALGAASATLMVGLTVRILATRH

Turning to `COC[C@H]1CN(C(=O)[C@]2(F)CN(C3CCCC3)C[C@H]2c2ccc(OC)cc2)C[C@@H]1c1ccc(C(F)(F)F)cc1N1CCC(C(=O)O)CC1` [dersimelagon], the pIC50 was under 4.54 on OCT2, 6.46 on P‐gp (P‐glycoprotein), under 4.56 at MATE2‐K and 7.33 against OATP1B3. Besides, the IC50 on CYP2C9 (read-out: IC50 (μM) / Direct inhibition) is 9.16 µM; at UGT1A1 (direct inhibition), 1.45 µM. The pKi was 5.29 on CYP2C9 (read-out: Parameters / K i) and 5.92 on UGT1A1 (read-out: Parameters / K i).

By pIC50 is commonly meant −log10 of the IC50, conventionally taken in molar units. The low end stands for a high IC50, the high end for a low IC50.
